The test concerns soft rot fungi belonging to the groups Ascomycotina and Deuteromycotina. The experiment in a line: Soft rot soil burial test on treated beech blocks (similar to ENV-807, toxic limits per EN113). As to conditions: for Toxic Limit Value: active ingredient retention, beech blocks, John Innes No. 2 compost, 14 weeks at 28° C, lower-upper limits spanning pass/fail (>3% mass loss); for Effective Retention of Tebuconazole: tebuconazole retention needed.

We go through five compounds from patent US20060160791A1, “Wood preservative formulations” (priority 1999, published 2006).

From the text: The toxic limit value for a particular biocidal compound is the concentration of the compound which is required to prevent degradation (defined as >3% mass loss) of a substrate by a target organism. Toxic limits are normally expressed as two experimentally-determined concentrations that span the pass/fail point of the test. The toxic index is the midpoint of these two values.
A convenient method of assessing the synergistic properties of a formulation is to use a ‘synergistic index’. This may be defined as: [formula]
The theoretical toxic index may be calculated by interpolation to the theoretical line of action. A SI of 1 indicates no synergism. As the SI increases, so the degree of synergism also increases.
Testing was carried out to determine the performance of active ingredients alone and in mixture using a soft rot soil burial method.
Beech (Fagus sylvatica) blocks measuring 5×5×30 mm were prepared from local grown, seasoned, knot-free sapwood. After oven drying and weighing, the blocks were vacuum impregnated (in groups of 6 replicates) with retentions of the test preservatives which had been freshly prepared using deionised water as the diluent.
After treatment, the blocks were covered with polythene for a period of one week to reduce the drying rate and allow any fixation reactions to occur. They were then fully ventilated by standing on the laboratory bench for 2 weeks and allowed to dry.
Each series of blocks was then exposed in John Innes (No. 2) compost, previously wetted to 110% of water holding capacity using deionised water. The test systems were then incubated for 14 weeks at 28° C.
Following incubation, blocks were removed from the soil, gently rinsed in clean water and then oven dried and re-weighed.
Preservative retention and weight change data were calculated for each block and the results expressed as toxic limit values according to the criteria laid down in the test method EN113.
Where the lower toxic limit value provides a weight loss of 10% m/m or greater, then the upper toxic limit value has been used to indicate the probable effective retention of preservative; this is in accordance with EN113.

As for `CCCC1COC(Cn2cncn2)(c2ccc(Cl)cc2Cl)O1` (stereo not shown) [Propiconazole, 1-[[2-(2-4-dichlorophenyl)-4-propyl-1,3-dioxolan-2-yl]methyl]-1H-1,2,4-triazole], the “Toxic Limit Value” was above 7.0 kgm^−3. Further, under “propiconazole retention needed, alone or as part of the named mixture, EN113 conventions”, the “Effective Retention of Propiconazole” value is listed as above 7.0 kgm^−3.
With `CC(C)(C)C(O)(CCc1ccc(Cl)cc1)Cn1cncn1` (stereo not drawn) [Tebuconazole, alpha-[2-(4-chlorophenyl)ethyl]-alpha(1,1-dimethylethyl)-1H-1,2,4-triazole-1-ethanol], the “Toxic Limit Value” is recorded as above 7.0 kgm^−3. For the setting “alone or as part of the named mixture, EN113 conventions”, the “Effective Retention of Tebuconazole” value is reported as above 7.0 kgm^−3. In addition, under “alone or as part of the named mixture, EN113 conventions, listed as tebuconazole”, the “Effective Retention of Tebuconazole” value was above 7 kgm^−3.
As for “N,N-didecyl-N-methyl-poly(oxyethyl)ammonium propionate [Bardap 26]”, the “Toxic Limit Value” is given as above 6.2 kgm^−3. For the setting “Bardap 26 retention needed, alone or as part of the named mixture, EN113 conventions”, the “Effective Retention of Bardap 26” value was above 6.2 kgm^−3.
On to `[O-][S+]1CCON=C1c1cc2ccccc2s1` (stereo not shown) [Bethoxazin, 3-(benzo[b]thien-2-yl)-5,6-dihydro-1,4,2-oxathiazine 4-oxide], for which the “Toxic Limit Value” is above 0.77 kgm^−3. Under “bethoxazin retention needed, alone or as part of the named mixture, EN113 conventions”, the “Effective Retention of Bethoxazin” value was above 0.77 kgm^−3.
With `CC(C1CC1)C(O)(Cn1cncn1)c1ccc(Cl)cc1` (stereo not drawn) [Cyproconazole, (2RS,3RS; 2RS,3SR)-2-(4-chlorophenyl)-3-cyclopropyl-1-(1H-1,2,4-triazol-1-yl)butan-2-ol], the “Effective Retention of Cyproconazole” value (cyproconazole retention needed, alone or as part of the named mixture, EN113 conventions) was 1.25 kgm^−3.
